# Source: patent US20050136015A1, “Topical use of halosalicylic acid derivatives” (priority 2003, published 2005)
# What was measured:
# [1] = system: Pseudomonas aeruginosa; test: Zone of Inhibition Test; assay type: cell-based; conditions: P. aeruginosa, 1000 μl, isopropyl palmitate solvent
# [2] = system: Staphylococcus epidermidis; test: Zone of Inhibition Test; assay type: cell-based; conditions: S. epidermidis, 1000 μl, isopropyl palmitate solvent
# [3] = system: skin surface; test: Exfoliation (desquamation) activity, D-SQUAME skin surface sampling discs; assay type: in vivo; conditions: for D-SQUAME Score: scoring scale 0 to 5
# Text: D-SQUAME skin surface sampling Discs (CuDerm Corporation) were employed. The disc was applied to a clean, dry skin surface and pressed firmly for a few seconds using the thumb or fingertips. The disc was then transferred to a black square on the storage card. The disc was viewed at an angle with strong light and compared with 5 reference patterns provided by CuDerm Corporation. Very dry skin produces a heavy amount of scaling similar to pattern 5. Normal skin produces a few areas of small clumps of cells or a fine even single layer of cells. The scoring scale employed was as follows: [table] […] The vehicle was tested, as a control. The vehicle (ANEW All-In-One SPF-15 Self-Adjusting Perfecting Creme base without the glycolic acid) employed was the same in all cases, only the test compound(s) differed.
# [4] = system: Candida albicans; test: Zone of Inhibition Test; assay type: cell-based; conditions: C. albicans, 1000 μl, isopropyl palmitate solvent
# [5] = system: Aspergillus niger; test: Zone of Inhibition Test; assay type: cell-based; conditions: A. niger, 1000 μl, isopropyl palmitate solvent
# [6] = system: Propionibacterium acnes; test: Zone of Inhibition Test; assay type: cell-based; conditions: for Diameter of Zone of Inhibition: P. acnes, 1000 μl, isopropyl palmitate solvent
# [7] = Skin irritation (PII) of test formulation; assay type: in vivo
# [8] = system: Salmonella typhimarium; conditions: literature report; cited from earlier work
# [9] = system: Staphylococcus aureus; test: Zone of Inhibition Test; assay type: cell-based; conditions: S. aureus, 1000 μl, isopropyl palmitate solvent
# [10] = system: Escherichia coli; test: Zone of Inhibition Test; assay type: cell-based; conditions: E. coli, 1000 μl, isopropyl palmitate solvent
# [11] = system: all of the test microorganisms; test: MLC test, summary over all test microorganisms; assay type: cell-based; conditions: against all of the test microorganisms of Table 1
# [12] = 0.5% active in ANEW creme base vehicle
# [13] = 0.5% active in ANEW creme base vehicle without glycolic acid
smiles,measurement,setting,value
"O=C(O)c1cc(Cl)ccc1O [5-Chlorosalicylic Acid, 5-chlorosalicylic acid]",Diameter of Zone of Inhibition,[1]; 0.5%,0 Millimeters
same,Diameter of Zone of Inhibition,[1]; 1.0%,0 Millimeters
same,Diameter of Zone of Inhibition,[2]; 0.5%,3.59 Millimeters
same,Diameter of Zone of Inhibition,[2]; 1.0%,13.15 Millimeters
same,D-SQUAME Score,[3]; [12],2.44
same,Exfoliation activity compared with 0.5% salicylic acid,"[3]; D-SQUAME, Table 5",significantly more exfoliating
same,Exfoliation activity compared with 1.0% salicylic acid,"[3]; D-SQUAME, Table 5",equivalent in exfoliation activity
same,Exfoliation activity compared with 2.0% salicylic acid,"[3]; D-SQUAME, Table 5",equivalent in exfoliation activity
same,Exfoliation activity compared with the base vehicle (containing no CLSA or SA),"[3]; D-SQUAME, Table 5",significantly more exfoliating
same,Exfoliation activity compared with the combination of 0.5% chlorosalicylic acid/0.5% salicylic acid,"[3]; D-SQUAME, Table 5",equivalent in exfoliation activity
same,Diameter of Zone of Inhibition,[4]; 0.5%,0 Millimeters
same,Diameter of Zone of Inhibition,[4]; 1.0%,2.96 Millimeters
same,Diameter of Zone of Inhibition,[5]; 0.5%,0 Millimeters
same,Diameter of Zone of Inhibition,[5]; 1.0%,3.38 Millimeters
same,Diameter of Zone of Inhibition,[6]; 0.5%,4.87 Millimeters
same,Diameter of Zone of Inhibition,[6]; 1.0%,17.62 Millimeters
same,Activity against Propionibacterium acnes compared with salicylic acid,[6]; results of Tables 2 through 4,more active
same,PII (skin irritation),[7]; [13],0.00
same,Mutagenic activity,[8],non-mutagenic
same,Diameter of Zone of Inhibition,[9]; 0.5%,0 Millimeters
same,Diameter of Zone of Inhibition,[9]; 1.0%,3.04 Millimeters
same,Diameter of Zone of Inhibition,[10]; 0.5%,0 Millimeters
same,Diameter of Zone of Inhibition,[10]; 1.0%,0 Millimeters
"O=C(O)c1ccccc1O [Salicylic Acid, salicylic acid]",Diameter of Zone of Inhibition,[1]; 0.83%,0 Millimeters
same,Diameter of Zone of Inhibition,[1]; 1.66%,0 Millimeters
same,Diameter of Zone of Inhibition,[2]; 0.83%,4.5 Millimeters
same,Diameter of Zone of Inhibition,[2]; 1.66%,13.62 Millimeters
same,D-SQUAME Score,[3]; [12],1.97
same,D-SQUAME Score,[3]; 1% active in ANEW creme base vehicle,2.28
same,D-SQUAME Score,[3]; 2.% active in ANEW creme base vehicle,2.56
same,Bacteriocidal activity (in words),[11],bacteriocidal against all of the test microorganisms
same,Diameter of Zone of Inhibition,[4]; 0.83%,4.6 Millimeters
same,Diameter of Zone of Inhibition,[4]; 1.66%,11.16 Millimeters
same,Diameter of Zone of Inhibition,[5]; 0.83%,0 Millimeters
same,Diameter of Zone of Inhibition,[5]; 1.66%,6.72 Millimeters
same,Diameter of Zone of Inhibition,[6]; 0.83%,0 Millimeters
same,Diameter of Zone of Inhibition,[6]; 1.66%,15.39 Millimeters
same,PII (skin irritation),[7]; [13],0.00
same,PII (skin irritation),[7]; 1% active in ANEW creme base vehicle without glycolic acid,0.00
same,PII (skin irritation),[7]; 2.% active in ANEW creme base vehicle without glycolic acid,0.00
same,Diameter of Zone of Inhibition,[9]; 0.83%,0 Millimeters
same,Diameter of Zone of Inhibition,[9]; 1.66%,6.38 Millimeters
same,Diameter of Zone of Inhibition,[10]; 0.83%,0 Millimeters
same,Diameter of Zone of Inhibition,[10]; 1.66%,3.67 Millimeters
